The numbers were not newly measured in US20250352536A1, “NEURORESTORATION COMPOSITIONS IMPLEMENTING MULTIPLE NEUROPLASTICITY INDUCING MECHANISMS OF ACTION” (Neuro-Innovators, Inc., priority 2022, published 2025), which cites them from elsewhere.

For this data set, the system named is recurrent stroke. The conditions noted are these: compared with aspirin, previous clinical trials.

On to `O=C1CCc2cc(OCCCCc3nnnn3C3CCCCC3)ccc2N1` [cilostazol, Cilostazol], for which the hemorrhagic events entry is “fewer hemorrhagic events” and the “incidence of recurrent stroke” value was “significantly reduce the incidence of recurrent stroke”.
